The text below walks through data of patent US7494997B2, “Amide derivative” (Nippon Shinyaku Co., Ltd., priority 2002, dated 2009).

Data set [1] has as its system U937 cells. Description: Cell growth inhibitory effect, U937 cells (WST-8, 72 hours). As to conditions: Homo sapiens, U-937, 72 h, read-out: U937 cells (IC50 value: μM).
Data set [2] concerns K562 cells. Briefly: Cell growth inhibitory effect, K562 cells (WST-8, 72 hours). To be noted: for IC50: read-out: K562 cells (IC50 value: μM); for Ratio (U937 cells/K562 cells): ratio of IC50 values U937 cells/K562 cells. (Tetrazolium dyes change colour on reduction, which living cells bring about.)
The mark [3] stands for this setting: BCR-ABL positive K562 cells, 72 hours, cell growth inhibition.

Usually melting point stands for the temperature, or range, at which the solid turns liquid. By IC50 is commonly meant the point on the concentration scale where inhibition reaches its midpoint.

The structures appear in SMILES notation. Where two headings read alike, the source gives them in different places.

In the case of `Cc1ccc(NC(=O)c2ccc(CN3CCN(C)CC3)c(Br)c2)cc1Nc1nccc(-c2cncnc2)n1.Cl`, the melting point was 184 to 186 °C (dec.). As to `Cc1ccc(NC(=O)c2ccc(CN3CCN(C)CC3)c(C(F)(F)F)c2)cc1Nc1nccc(-c2cncc(Br)c2)n1.Cl`, the melting point was in the range of 184 to 187 °C. Take `CS(=O)(=O)O.Cc1ccc(NC(=O)c2ccc(CN3CCN(C)CC3)c(C(F)(F)F)c2)cc1Nc1nccc(-c2cncnc2)n1`: the melting point is 171 to 173 °C.

For the compound `Cc1ccc(NC(=O)c2ccc(CN3CCN(C)CC3)c(Br)c2)cc1Nc1cncc(-c2cccnc2)c1` (hydrate or solvate) [Example 17, 3-bromo-4-(4-methylpiperazin-1-ylmethyl)-N-{4-methyl-3-[3-(3-pyridyl)pyridin-5-ylamino]phenyl}benzamide], the melting point is 139 to 141 °C. As for `Cc1ccc(NC(=O)c2ccc(CN3CCN(C)CC3)c(Br)c2)cc1Nc1cncc(-c2cccnc2)n1` (hydrate or solvate) [Example 19, 3-bromo-4-(4-methylpiperazin-1-ylmethyl)-N-{4-methyl-3-[2-(3-pyridyl)pyrazin-6-ylamino]phenyl}benzamide], the melting point is 192 to 193 °C.

`Cc1ccc(NC(=O)c2ccc(CN3CCN(C)CC3)c(Br)c2)cc1Nc1nncc(-c2cccnc2)n1` (hydrate or solvate) [Example 20, 3-bromo-4-(4-methylpiperazin-1-ylmethyl)-N-{4-methyl-3-[5-(3-pyridyl)-1,2,4-triazin-3-ylamino]phenyl}benzamide] gave a melting point of 219 to 221 °C.

As to `Cc1ccc(NC(=O)c2ccc(CN3CCN(C)CC3)c([N+](=O)[O-])c2)cc1Nc1nccc(-c2cccnc2)n1` (hydrate or solvate) [Example 22, 4-(4-methylpiperazin-1-ylmethyl)-3-nitro-N-{4-methyl-3-[4-(3-pyridyl)pyrimidin-2-ylamino]phenyl}benzamide], the melting point fell in the range of 184 to 186 °C.

On to `CCN1CCN(Cc2ccc(C(=O)Nc3ccc(C)c(Nc4nccc(-c5cccnc5)n4)c3)cc2Br)CC1` (hydrate or solvate) [Example 27, 3-bromo-4-(4-ethylpiperazin-1-ylmethyl)-N-{4-methyl-3-[4-(3-pyridyl)pyrimidin-2-ylamino]phenyl}benzamide], for which the melting point was in the range of 202 to 203 °C. Regarding `Cc1ccc(NC(=O)c2ccc(CN3CCN(C)CC3)c(Br)c2)cc1Nc1nccc(-c2cccnc2)n1` [Example 1, 3-bromo-4-(4-methylpiperazin-1-ylmethyl)-N-{4-methyl-3-[4-(3-pyridyl)pyrimidin-2-ylamino]phenyl}benzamide], the melting point was 202 to 203 °C (dec.). For the same compound, the IC50 in data set [1] came out at 4.8 µM. Also, the IC50 in data set [2] (Homo sapiens, K562, 72 h) was determined as 0.0022 µM. With `Cc1ccc(NC(=O)c2ccc(CN3CCN(C)CC3)c(F)c2)cc1Nc1nccc(-c2cccnc2)n1` [Example 4, 3-fluoro-4-(4-methylpiperazin-1-ylmethyl)-N-{4-methyl-3-[4-(3-pyridyl)pyrimidin-2-ylamino]phenyl}benzamide], the melting point is 197 to 199 °C (dec.). For the same compound, the IC50 in data set [1] was found to be 12.4 µM. For the same compound, the IC50 in data set [2] (Homo sapiens, K562, 72 h) amounted to 0.033 µM. On to `Cc1ccc(NC(=O)c2ccc(CN3CCN(C)CC3)c(Br)c2)cc1Nc1nccc(-c2ccc(Cl)nc2)n1` [Example 8, 3-bromo-4-(4-methylpiperazin-1-ylmethyl)-N-{3-[4-(6-chloropyridin-3-yl)pyrimidin-2-ylamino]-4-methylphenyl}benzamide], for which the melting point was 219 to 222 °C (dec.). For `Cc1ccc(NC(=O)c2ccc(CN3CCN(C)CC3)c(Br)c2)cc1Nc1nccc(-c2cccnn2)n1` [Example 12, 3-bromo-4-(4-methylpiperazin-1-ylmethyl)-N-{4-methyl-3-[4-(3-pyridazinyl)pyrimidin-2-ylamino]phenyl}benzamide], the melting point was 185 to 187 °C (dec.). `Cc1ccc(NC(=O)c2ccc(CN3CCN(C)CC3)c(Br)c2)cc1Nc1cccc(-c2cccnc2)c1` [Example 18, 3-bromo-4-(4-methylpiperazin-1-ylmethyl)-N-{4-methyl-3-[3-(3-pyridyl)phenylamino]phenyl}benzamide] had a melting point of 174 to 175 °C. Consider `Cc1ccc(NC(=O)c2ccc(CN3CCN(C)CC3)c(Br)c2)cc1Nc1cncc(-c2cccnc2)n1` [Example 19, 3-bromo-4-(4-methylpiperazin-1-ylmethyl)-N-{4-methyl-3-[2-(3-pyridyl)pyrazin-6-ylamino]phenyl}benzamide], for which the half-inhibitory concentration (IC50) in data set [1] is 2.4 µM; in data set [2] (Homo sapiens, K562, 72 h), 0.06 µM. Further, in data set [2], the “Ratio (U937 cells/K562 cells)” value turned out to be 40.0. For `Cc1ccc(NC(=O)c2ccc(CN3CCN(C)CC3)c(Br)c2)cc1Nc1nncc(-c2cccnc2)n1` [Example 20, 3-bromo-4-(4-methylpiperazin-1-ylmethyl)-N-{4-methyl-3-[5-(3-pyridyl)-1,2,4-triazin-3-ylamino]phenyl}benzamide], the IC50 in data set [1] was determined as 1.82 µM; in data set [2] (Homo sapiens, K562, 72 h), 0.015 µM. Besides, in data set [2], the “Ratio (U937 cells/K562 cells)” value was determined as 121.3. For `Cc1ccc(NC(=O)c2ccc(CN3CCN(C)CC3)c([N+](=O)[O-])c2)cc1Nc1nccc(-c2cccnc2)n1` [Example 22, 4-(4-methylpiperazin-1-ylmethyl)-3-nitro-N-{4-methyl-3-[4-(3-pyridyl)pyrimidin-2-ylamino]phenyl}benzamide], the IC50 worked out at 6.56 µM in data set [1] and 0.0032 µM in data set [2] (Homo sapiens, K562, 72 h). In data set [2], the “Ratio (U937 cells/K562 cells)” value is given as 2050.0.

Turning to `Cc1ccc(NC(=O)c2ccc(CN3CCN(C)CC3)c(C(=O)N(C)C)c2)cc1Nc1nccc(-c2cccnc2)n1` [Example 26, 3-(N,N-dimethylcarbamoyl)-4-(4-methylpiperazin-1-ylmethyl)-N-{4-methyl-3-[4-(3-pyridyl)pyrimidin-2-ylamino]phenyl}benzamide], the melting point was 210 to 214 °C (dec.). In the case of `CCN1CCN(Cc2ccc(C(=O)Nc3ccc(C)c(Nc4nccc(-c5cccnc5)n4)c3)cc2Br)CC1` [Example 27, 3-bromo-4-(4-ethylpiperazin-1-ylmethyl)-N-{4-methyl-3-[4-(3-pyridyl)pyrimidin-2-ylamino]phenyl}benzamide], the IC50 is 7.16 µM in data set [1] and 0.00049 µM in data set [2] (Homo sapiens, K562, 72 h). Also, the “Ratio (U937 cells/K562 cells)” value in data set [2] amounted to 14612.2.

In turn, `Cc1ccc(NC(=O)c2ccc(CN3CCCCC3)c(Br)c2)cc1Nc1nccc(-c2cccnc2)n1` [Example 32, 3-bromo-4-(piperidinomethyl)-N-{4-methyl-3-[4-(3-pyridyl)pyrimidin-2-ylamino]phenyl}benzamide] registered a melting point of 158 to 159 °C. Consider `Cc1ccc(NC(=O)c2ccc(CN3C[C@@H](C)N[C@@H](C)C3)c(Br)c2)cc1Nc1nccc(-c2cccnc2)n1` [Example 34, 3-bromo-4-(cis-3,5-dimethylpiperazin-1-ylmethyl)-N-{4-methyl-3-[4-(3-pyridyl)pyrimidin-2-ylamino]phenyl}benzamide], for which the melting point was 204 to 205 °C. Consider `Cc1ccc(NC(=O)c2ccc(CN3CCNCC3)c(Br)c2)cc1Nc1nccc(-c2cncnc2)n1` [Example 36, 3-bromo-4-(1-piperazinylmethyl)-N-{4-methyl-3-[4-(5-pyrimidinyl)pyrimidin-2-ylamino]phenyl}benzamide], for which the IC50 in data set [2] (setting [3]) was 0.0041 µM.

Take `Cc1ccc(NC(=O)c2ccc(CN3CCNCC3)c(C(F)(F)F)c2)cc1Nc1nccc(-c2cncnc2)n1` [Example 38, 4-(1-piperazinylmethyl)-3-trifluoromethyl-N-{4-methyl-3-[4-(5-pyrimidinyl)pyrimidin-2-ylamino]phenyl}benzamide]: the concentration for half-maximal inhibition (IC50) in data set [2] (setting [3]) is 0.00093 µM.
